The values that follow come from patent US20090042783A1, “APO E ANALOGS AND METHODS FOR THEIR USE” (priority 2004, published 2009).

Read-outs that look alike come from different tables or passages of the source.

Data set [1] has as its system RAW 264.7 macrophages.
The subject of another data set is BV2 microglial cells. On the procedure:
For suppression of inflammation profiling, each peptide analog was tested at a final concentration of 0.1, […], 1, 3, 5, 10 and 25 μM in an LPS induced BV2 microglial cell release of NO and/or TNFα. […] The modification was a biotin label on the apoE peptide (biotin-[…]-amide) which allows detection with ^125I-streptavidin (ISA, Amersham).
In overview, BV-2 cells are plated in 96 well plates in complete media and then the media is replaced the next day with serum free media or reduced serum (1%) media. […] Each concentration of peptide (standard initial concentrations are 0.1, 0.5, 1, 3, 10 and 25 μM) is added to at least 6 wells of cells (e.g. 6 wells get 0.1 μM peptide, 6 wells get 0.5 μM peptide, etc.) and data are averaged from all 6 wells. […] (2001). Cell viability is also measured with an MTT assay (Laskowitz et al. 2001).

In data set [2] the test system is mice with traumatic brain injury. Kind of data set: Closed head injury model of traumatic brain injury (rotorod, Morris Water Maze). A general note: In the rotarod test animals must keep their balance on a rotating rod.
Procedure: C57Bl/6J male mice (The Jackson Laboratory, ME), 12-16 weeks of age and weighing 24-32 g, are used for all experiments. Anesthesia is first induced with isoflurane in 30% O2/balance N2. The trachea is intubated and the lungs mechanically ventilated with 1.6% isoflurane in 30% O2/balance N2. Temperature is monitored with a rectal probe and maintained at 36.5° C. with a heat lamp. The right internal jugular vein is cannulated with silicone catheter. […] Intubated animals are then placed prone on a molded acrylic cast (FIG. 6A). […] The scalp is incised and the skull exposed. A concave 3 mm metallic disc is secured to the skull surface (with the concave surface in juxtaposition to the skull) by an adhesive. […] The disc is placed directly midline just caudal to bregma (FIG. 6B). […] The mice are positioned in a stereotactic frame. Although the stereotactactic frame helps to stabilize the animal and exactly calibrate the vertical displacement on impact (3 mm), ear bars are not used due to a much higher rate of skull fracture (or brainstem injury if the head rotates around the axis of the ear bars during impact). The piston is discharged at 6.8±0.2 m/s so as to impact the skull in the acrylic mold to move a maximum of approximately 3 mm (FIG. 6C). Inspired isoflurane is decreased to 0.7% immediately after impact. The scalp was infiltrated with lidocaine and closed with suture. Ophthalmic ointment was applied to the eyes for protection. The incidence of skull fracture is low (approximately 10%), as the metal disk helps to diffuse the impact, and the absence of ear bar fixation allows for displacement of the entire head. Mice were excluded if a depressed skull fracture was observed (incidence of approximately 10%). The animals are allowed to recover spontaneous ventilation then extubated. […] In these mice, arterial blood pressure, blood gas and glucose measurement at baseline, immediately after injury, and 15 minutes after injury are monitored during the recovery period.
Briefly, baseline performance on rotorod is established before the mice are intubated, the skin over the scalp reflected and a controlled cortical impact from a pneumatic impactor given on the midline. The skin is closed with surgical clips and the animals are constantly monitored until awake from anesthesia and then hourly for the next 4 hours. […] Performance on rotorod is tested at 24 hours post impaction and then every day for 5 days and data is presented as described. Groups of 12 mice are used for each compound at 0.5×MTD. […] Novel peptides and non-peptide analogs are also given by tail vein injection.
Daily Rotarod (RR) testing was used to assess short term motor and cerebellar deficit following head injury (Hamm et al., 1994). Mice were held by their tails and placed on the RR facing the wall by using gentle swinging motion while running in a constant speed mode.
For data set [3], the system named is RAW 264.7 macrophages. Kind of data set: NO production and iNOS mRNA in C. rodentium-stimulated macrophages. It counts as cell-based, mouse. From the text:
RAW 264.7 cells were stimulated with French-pressed lysates of C. rodentium at a multiplicity of infection of 100. […] B, RT-PCR for iNOS.
We used bacterial lysates to more closely mimic the bacterial products to which lamina propria macrophages are likely to be exposed.

A further data set relates to peritoneal macrophages. Nature of the data set: Peritoneal macrophage production of NO, TNFα and IL-6 induced by MOG or LPS/IFN-γ. The format is cell-based, mouse. On the procedure:
For this purpose, three mice with clinical scores of 0 and three with clinical scores of 4 at 30 dpi (day post-immunization) were used for preparation of peritoneal macrophage cultures. Macrophages were collected after peritoneal lavage with 3 ml heparin (10 U/ml)-containing PBS and then seeded to 96-well microplates at a density of 1×10^5 cells/well in Dulbecco's MEM containing 10% fetal bovine serum, 2 mM L-glutamine serum, 1% HEPES and 100 U/ml penicillin and 100 μg/ml streptomycin, 37° C. in a humidified incubator with 5% CO2. 24 h later, the serum-containing medium was removed and cells were washed once with serum-free medium. To examine the differentiated response of macrophage to immune stimulators, macrophages obtained from mice with clinical scores of 0 or 4 were exposed to serial concentrations of IFN-γ/LPS or MOG35-55 peptide. […] Media were collected at 45 h or 72 h, and analyzed by ELISA for […] and IL-6 or for nitric oxide (NO) as detailed below.
As the stable end product of nitric oxide release, nitrite levels in conditioned media were determined by injecting 50 μl media sample into a Sievers 280 NOA analyzer (Boulder, Colo., USA). Total protein (μg/well) was measured using the BCA method (Pierce, Rockford, Ill., USA) according to manufacturer's instructions with BSA as standard. BCA values were measured using a Molecular Devices Thermomax Microplate Reader (Menlo Park, Calif., USA) at OD562. Nitric oxide levels ere expressed as μM NO2—/mg protein.
For cytokine assays, supernatants were collected 45 h after […]/LPS or MOG treatments and quantitative ELISAs using selected pairs of monoclonal antibodies (as recommended by the manufacturer Biosource) were performed to quantify the cytokines, TNF-α and IL-6. For TNF-α ELISA, 96-well ELISA plates were pre-coated with rabbit anti-mouse polyclonal to TNF-α as capture antibodies for 18 h at 2-8° C. and then blocked for 2 h at room temperature. The wells were incubated with samples or mouse TNF-α standards. Following incubation for 2 h at room temperature, the wells were washed, after which hamster anti-mouse TNF-α biotinylated secondary antibody and horseradish peroxidase conjugate were added. Tetramethylbenzidine (TMB) solution was then added, and peroxidase-catalyzed color change was stopped by acidification with 2 NH2SO4. The plates were scanned at wavelength 450 nm and the absorbance were measured. The results are expressed as the mean concentration (pg/ml) ±SEM.
For IL-6 ELISA, rat anti-mouse monoclonal to IL-6 was used as capture antibody, and biotinylated rat anti-mouse monoclonal to IL-6 as detection antibody. The rest of procedure is identical to that of TNF-α ELISA.

In data set [4] the test system is BV2 murine microglial cells. On the procedure:
For Applicants preliminary work, the two most common PTDs, TAT and penetratin, were used.
Cell Culture: BV-2, a well-characterized murine microglial cell line (Bochinni, 1992), is cultured in high glucose content DMEM supplemented with 1% penicillin/streptomycin, 10% fetal calf serum, 1% nonessential amino acids, and 1% sodium pyruvate. Cells are grown to confluency; trypsinized; spun down; resuspended in serum-free OptiMEM containing 1% N2 supplement, 1% penicillin/streptomycin, 1% nonessential amino acids, and 1% sodium pyruvate; and plated at a concentration of 20,000 cells/well to remove any nonadherent cells and serum.
Supernatant is collected 24 and/or 48 h after LPS stimulation and assayed for nitrite.
Quantification of Nitric Oxide (NO): Accumulation of nitrite (stable end product of NO production) in the medium is measured by colometric Griess reagent system (Promega); the absorbance is determined at 540 nm.
Cell Viability Assay: Cell viability is measured using a nonradioactive cell viability assay (cell titer 96 AQ, Promega). The assay measures the bioreduction of MTS (3-(4,5-dimethylthiazole-2-)-5-(3-carboxymethoxyphenyl)-2-(4-sulfophenyl)-2H-tetrazolium by viable cells into formazan. The absorbance of the calorimetric assay is measured at λ 490 nm. Viability is assessed and used to normalize the nitrite data.

For “Ac-RQIKIWFQNRRMKWKKLRVRLASHLRKLRKRLL-NH2 (N-terminus and C-terminus assumed) [COG4502]”, in the data set with RAW 264.7 macrophages [1], the “Concentration at which cell toxicity was noted” value worked out at 10 µM and the “Concentration range where toxicity did not occur” value was 0.1 to 5 µM. Moreover, the “Suppression of NO and/or TNFα release from LPS treated BV2 cells” value in the data set with BV2 microglial cells is reported as “much better than the COG133 parent”. Moreover, the IC50 with BV2 microglial cells (40 h) was about 0.01 µM. In data set [2] (FIG. 20: 90 minutes following TBI), the “Rotorod performance, conjugates given at varying times following TBI” value is given as “can increase the therapeutic window of COG133”. In data set [2] (mouse, in vivo), the “In vivo Therapeutic window time expanded?” value is given as “Yes; tested at 4 X”. Further, the “NO production (nitrite levels) in macrophage supernatants” value in the data set with RAW 264.7 macrophages [3] (C. rodentium lysates, COG1410 2 μM, COG4502 0.1-5 μM) is listed as “inhibition of NO production”. Besides, the “iNOS mRNA expression” value in the data set on RAW 264.7 macrophages [3] (RT-PCR) is given as “significant, concentration-dependent inhibition of iNOS mRNA expression”. The “Inhibition of cytokine production induced by MOG or LPS/IFN-γ” value with peritoneal macrophages is recorded as “significantly more powerful in inhibiting cytokine production”. The “Production of NO, TNFα and IL-6 at 5 μM” value with peritoneal macrophages (5 μM, MOG or LPS/IFN-γ) is “inhibited the production of NO, TNFα and IL-6 completely”. The “TNFa and IL6 release from peritoneal macrophages” value in the data set with peritoneal macrophages (gamma interferon and LPS, 24 hours) is “dose dependent inhibition of TNFa release and a dose dependent inhibition of IL6 release”. Besides, in data set [4], the IC50 worked out at 0.7 µM, the “Increase in potency relative to COG133” value came to 40 fold and the “Suppression of LPS-stimulated nitrite secretion” value is reported as “significantly more potent than COG133”. In data set [4] (25 μM), the “Suppression of NO production at 25 μM” value was 100%. In data set [4] (FIG. 18 vs FIG. 16), the “Increase of efficacy of COG133 when conjugated to penetratin” value was “about 100 fold”. For the same substance, the IC50 in data set [4] (read-out: Dose for fifty percent suppression of LPS-stimulated nitrite secretion, FIG. 18) was about 0.03 µM. The IC50 in data set [4] (read-out: IC50 TNFα, in vitro) turned out to be 1.1 µM.
